Data published in US9926529B2, “Derivation of neural stem cells and dopaminergic neurons from human pluripotent stem cells” (International Stem Cell Corporation, priority 2012, dated 2018).
Counter-ions that a name gives are not always drawn. Like-named read-outs stand apart in the source and are kept apart here.

Columns and labels:
hPSC-NSCs [1] = assay: Percentage of TH positive cells produced by chemical treatment; assay type: cell-based, human; details: chemical treatment 2.5 μM for two weeks
Description: (§1) The method specifically involved treating both hESC-H9-NSCs (Invitrogen) and hPSC-NSCs with Purmorphamine (2 μM) and FGF8 (100 ng/mL) in NB medium [NeuroBasal medium, 1× GlutaMAX, 1× N2/B27 Supplement (Invitrogen)] for 7 days. After 7 days of Purmorphamine and FGF8 treatment, the NSCs were dissociated with Accutase (Sigma) and plated 20,000 cells/mL into Matrigel coated 96 well plates and treated with small molecule library (Torcris 1120 Biologically Active Compounds) at 2.5 μM final concentration for two weeks (FIG. 6A). Two weeks after treatment with small molecules, all wells were visually observed and scored based on neurite density and dopamine release. For measuring neurite density, cells were fixed with 4% paraformaldehyde and phase contrast images were acquired using Cellavista Cell Imaging System (Roche Applied Science) from randomly selected fields. Neurite density was measured using the Cellavista density software image processing program. Each experimental condition was done in duplicate wells, and at least three independent experiments were conducted to acquire the final results.
(§2) Conditioned medium from the top neurite inducers (Table 1) (wells containing the highest density of neurites compare to control 0.1% DMSO treated) were collected and analyzed using a dopamine ELISA assay (Cosmo Bio). Conditioned medium was collected from samples containing 50,000 cells per well and centrifuged at 3000 RPM to remove cell debris. Supernatant was then collected and analyzed for quantitative determination of dopamine using a commercial dopamine ELISA assay kit (CusaCosmo Bio). Data analysis was performed using the microtiter plate reader (BIO-TEK Synergy 2). The results presented are from three independent experiments (n=3) and represented as mean±standard error of mean (s.e.m.) and statistical analysis was performed using the two-tailed Student's t-test with a confidence level of 95% (α=0.05) with statistical significance of P<0.05. Additionally, total RNA from each well were collected and analyze by RT-PCR for expression of TuJ1, MAP2, TH, GRK2, EN1, DAT, AADC, PAX2, NURR1, PITX3 and LMX1B from hPSC-NSCs (Table 2). […] Analysis of the ELISA data indicated the top small molecule neurite inducers produced higher levels of dopamine than control non-treated cells (1.5 ng/mL). […] The percentages of TH positive cells produced by chemical treatment with Kenpaullone (33%), Guggulsterone (35%), Kynurenic Acid (19%), Immedthridine Dihydrobromide (21%), and Dimaprit Dihydrochloride (18%) were higher than 15% of TH positive cells obtained from hPSC-NSCs differentiated for ≥1 month using a standard dopaminergic differentiation medium (BDNF 20 ng/mL, GDNF 20 ng/mL, cAMP 200 μM, Abscorbic Acid 200 μM, TGFβ3 2 ng/mL and DAPT).

hPSC-NSCs [2] = assay: RT-PCR expression of dopamine neuron genes in hPSC-NSCs treated with small molecule hits; assay type: cell-based, human; details: for fold induction at 2.5 µM: Homo sapiens, Neuron, 336 h
Description: as §1, §2
Total RNA from at least triplicate samples with around 1 million cells each was isolated using either QIAsymphony automatic purification system or RNeasy Plus Mini kit, according to manufacturer's instructions (Qiagen). Total RNA was used for reverse transcription with the iScript cDNA synthesis kit (Biorad) and Px2 Thermal Cycler (Thermo Scientific). To analyze gene expression, PCR reactions were performed in duplicate using 1/25-th of the cDNA per reaction and the QuantiTect Primer Assay and Quantitest SYBR Green master mix (Qiagen). qPCR was performed using the Rotor-Gene Q (Qiagen) 5 min at 95° C., 5 s at 92° C., and 20 s at 60° C. for 37 cycles followed by melt to check the specificity of the amplicons from 50 to 99° C. raising by 1° C. each step. Relative quantification was performed against a standard curve and quantified values were normalized against the input determined by PPIG. The primers used for the analysis are listed in Supplementary Table S1. […]

[3] = hPSC-NSCs primed 7 days with Purmorphamine and FGF8, small molecule 2.5 μM for two weeks, read-out: DDC (AADC) expression by RT-PCR
[4] = hPSC-NSCs primed 7 days with Purmorphamine and FGF8, small molecule 2.5 μM for two weeks, read-out: EN1 expression by RT-PCR
[5] = hPSC-NSCs primed 7 days with Purmorphamine and FGF8, small molecule 2.5 μM for two weeks, read-out: KCNJ6 expression by RT-PCR
[6] = hPSC-NSCs primed 7 days with Purmorphamine and FGF8, small molecule 2.5 μM for two weeks, read-out: MAP2 expression by RT-PCR
[7] = hPSC-NSCs primed 7 days with Purmorphamine and FGF8, small molecule 2.5 μM for two weeks, read-out: NR4A2 (NURR1) expression by RT-PCR
[8] = hPSC-NSCs primed 7 days with Purmorphamine and FGF8, small molecule 2.5 μM for two weeks, read-out: PITX3 expression by RT-PCR
[9] = hPSC-NSCs primed 7 days with Purmorphamine and FGF8, small molecule 2.5 μM for two weeks, read-out: TH1 expression by RT-PCR
[10] = hPSC-NSCs primed 7 days with Purmorphamine and FGF8, small molecule 2.5 μM for two weeks, read-out: Tubb3 expression by RT-PCR
[11] = read-out: SLC6A3 (DAT) expression by RT-PCR
[12] = hPSC-NSCs primed 7 days with Purmorphamine and FGF8, small molecule 2.5 μM for two weeks, read-out: LMX1B expression by RT-PCR
[13] = hPSC-NSCs primed 7 days with Purmorphamine and FGF8, small molecule 2.5 μM for two weeks, read-out: Pax2 expression by RT-PCR
[14] = hPSC-NSCs primed 7 days with Purmorphamine and FGF8, small molecule 2.5 μM for two weeks, read-out: SLC6A3 (DAT) expression by RT-PCR
[15] = hPSC-NSCs primed 7 days with Purmorphamine and FGF8, small molecule 2.5 μM for two weeks

Row | Compound | fold induction at 2.5 µM (hPSC-NSCs [2]; [3]) | fold induction at 2.5 µM (hPSC-NSCs [2]; [4]) | fold induction at 2.5 µM (hPSC-NSCs [2]; [5]) | fold induction at 2.5 µM (hPSC-NSCs [2]; [6]) | fold induction at 2.5 µM (hPSC-NSCs [2]; [7]) | fold induction at 2.5 µM (hPSC-NSCs [2]; [8]) | fold induction at 2.5 µM (hPSC-NSCs [2]; [9]) | fold induction at 2.5 µM (hPSC-NSCs [2]; [10]) | fold induction at 2.5 µM (hPSC-NSCs [2]; [12]) | fold induction at 2.5 µM (hPSC-NSCs [2]; [13]) | fold induction at 2.5 µM (hPSC-NSCs [2]; [14]) | other results
1 | CN(C)CCCSC(=N)N [Dimaprit dihydrochloride] | 31.9 | 15.5 | 0.16 | 12.4 | 1.87 | 0.45 | 9.02 | 9.62 |  |  |  | percentage of TH positive cells (hPSC-NSCs [1]): 18%
2 | c1cc(Cc2cnc[nH]2)ccn1 [Immethridine dihydrobromide] | 28.2 | 11.8 | 0.22 | 12.7 | 0.52 |  | 9.72 | 10.6 | 7.66 | 41.2 |  | percentage of TH positive cells (hPSC-NSCs [1]): 21%; fold induction at 2.5 µM (hPSC-NSCs [2]; [11]): 33.6
3 | O=C1Cc2c([nH]c3ccc(Br)cc23)-c2ccccc2N1 [Kenpaullone] | 11.1 | 11 | 0.12 | 8.17 | 0.05 |  | 2.15 | 9.61 |  |  |  | percentage of TH positive cells (hPSC-NSCs [1]): 33%; fold induction at 2.5 µM (hPSC-NSCs [2]; [11]): 108
4 | CC1(C)NC(=O)N(c2ccc([N+](=O)[O-])c(C(F)(F)F)c2)C1=O [Nilutamide] | 172 | 5.33 | 2.1 | 10.6 | 1.43 | 0.27 | 10.1 | 3.81 | 2.55 | 0.9 | 2.07 | 
5 | CCN1CCC[C@H]1CNC(=O)c1c(OC)ccc(Br)c1OC [Remoxipride hydrochloride] | 13.8 | 6.6 | 0.93 | 11.5 | 3.21 | 0.69 | 12 | 5.73 | 3.16 | 0.86 | 6.41 | 
6 | CC1=C(/C=C/C(C)=C/C=C/C(C)=C/C(=O)O)C(C)(C)CCC1 [Retinoic acid] | 110 | 12.8 | 2.8 | 7.7 | 153 | 0.04 | 1.99 | 7.05 | 1.25 | 0.5 | 1.99 | 
7 | CCOC(=O)c1ncn2c1CN(C)C(=O)c1cc(N=[N+]=[N-])ccc1-2 [Ro 15-4513] |  |  |  |  |  |  |  |  |  |  |  | DDC (AADC) expression by RT-PCR (hPSC-NSCs [2]; [15]): 12.88; EN1 expression by RT-PCR (hPSC-NSCs [2]; [15]): 5.9; KCNJ6 (GRK2) expression by RT-PCR (hPSC-NSCs [2]; [15]): 0.09; MAP2 expression by RT-PCR (hPSC-NSCs [2]; [15]): 7.19; NR4A2 (NURR1) expression by RT-PCR (hPSC-NSCs [2]; [15]): 0.9; PITX3 expression by RT-PCR (hPSC-NSCs [2]; [15]): 0.72; SLC6A3 (DAT) expression by RT-PCR (hPSC-NSCs [2]; [15]): 0.46; TH1 expression by RT-PCR (hPSC-NSCs [2]; [15]): 8.49; Tubb3 expression by RT-PCR (hPSC-NSCs [2]; [15]): 4.9
8 | FC(F)(F)c1cccc(-c2noc(-c3cc(-c4ccccc4)c(C(F)(F)F)s3)n2)c1 [SEW 2871] | 68.3 | 8.08 | 0.88 | 12.3 | 2.36 |  | 7.6 | 5.17 | 3.65 | 1.59 | 32.1 | 
9 | O=C(CCCN1CCC2(CC1)C(=O)NCN2c1ccccc1)c1ccc(F)cc1 [Spiperone hydrochloride] | 13.1 | 7.4 | 0.24 | 9.66 | 0.58 | 0.18 | 11.1 | 3.57 |  |  | 1.25 | 
10 | C/C(=C\c1ccc(C(=O)O)cc1)c1ccc2c(c1)C(C)(C)CCC2(C)C [TTNPB] |  |  |  |  |  |  |  |  |  |  |  | DDC (AADC) expression by RT-PCR (hPSC-NSCs [2]; [15]): 21.95; EN1 expression by RT-PCR (hPSC-NSCs [2]; [15]): 9.42; KCNJ6 (GRK2) expression by RT-PCR (hPSC-NSCs [2]; [15]): 0.69; LMX1B expression by RT-PCR (hPSC-NSCs [2]; [15]): 1.45; MAP2 expression by RT-PCR (hPSC-NSCs [2]; [15]): 6.36; NR4A2 (NURR1) expression by RT-PCR (hPSC-NSCs [2]; [15]): 14.8; Pax2 expression by RT-PCR (hPSC-NSCs [2]; [15]): 0.09; SLC6A3 (DAT) expression by RT-PCR (hPSC-NSCs [2]; [15]): 0.5; TH1 expression by RT-PCR (hPSC-NSCs [2]; [15]): 5.5; Tubb3 expression by RT-PCR (hPSC-NSCs [2]; [15]): 4.64
11 | S=C(NC1CCCCC1)N1CCC(c2cnc[nH]2)CC1 [Thioperamide] | 95.6 | 7.72 | 2.21 | 13.2 | 3.43 | 0.28 | 8.38 | 5.6 | 3.81 | 1.15 |  | fold induction at 2.5 µM (hPSC-NSCs [2]; [11]): 25.5
12 | Cl.N=C(N)NC(=N)Nc1cccc(Cl)c1 [m-Chlorophenylbiguanide hydrochloride] |  |  |  |  |  |  |  |  |  |  |  | DDC (AADC) expression by RT-PCR (hPSC-NSCs [2]; [15]): 69.41; EN1 expression by RT-PCR (hPSC-NSCs [2]; [15]): 7.96; KCNJ6 (GRK2) expression by RT-PCR (hPSC-NSCs [2]; [15]): 1.65; LMX1B expression by RT-PCR (hPSC-NSCs [2]; [15]): 3.73; MAP2 expression by RT-PCR (hPSC-NSCs [2]; [15]): 9.6; NR4A2 (NURR1) expression by RT-PCR (hPSC-NSCs [2]; [15]): 5.51; Pax2 expression by RT-PCR (hPSC-NSCs [2]; [15]): 0.28; SLC6A3 (DAT) expression by RT-PCR (hPSC-NSCs [2]; [15]): 1.53; TH1 expression by RT-PCR (hPSC-NSCs [2]; [15]): 6.67; Tubb3 expression by RT-PCR (hPSC-NSCs [2]; [15]): 4.97
13 | O=C(O)/C=C/CO [trans-4-Hydroxycrotonic acid] | 69.7 | 12.7 | 0.22 | 12.4 | 4.49 |  | 13.2 | 10.8 |  |  |  | fold induction at 2.5 µM (hPSC-NSCs [2]; [11]): 6.11
14 | AM580 |  |  |  |  |  |  |  |  |  |  |  | DDC (AADC) expression by RT-PCR (hPSC-NSCs [2]; [15]): 81.43; EN1 expression by RT-PCR (hPSC-NSCs [2]; [15]): 12.94; KCNJ6 (GRK2) expression by RT-PCR (hPSC-NSCs [2]; [15]): 2.73; LMX1B expression by RT-PCR (hPSC-NSCs [2]; [15]): 2.16; MAP2 expression by RT-PCR (hPSC-NSCs [2]; [15]): 8.55; NR4A2 (NURR1) expression by RT-PCR (hPSC-NSCs [2]; [15]): 7.11; Pax2 expression by RT-PCR (hPSC-NSCs [2]; [15]): 0.1; SLC6A3 (DAT) expression by RT-PCR (hPSC-NSCs [2]; [15]): 0.66; TH1 expression by RT-PCR (hPSC-NSCs [2]; [15]): 5.28; Tubb3 expression by RT-PCR (hPSC-NSCs [2]; [15]): 4.58
